Experimental findings from patent US8980911B2, “Heterocyclic compounds as protein kinase inhibitors” (Daiichi Sankyo Company, Limited, priority 2011, dated 2015) are described below.

What all share (format): biochemical
The target of one experiment is T1, JAK1 (Homo sapiens, UniProt P23458).
T1 construct: JAK1 (aa 850-1154) and TYK2 (aa 871-1187) are expressed with an N-terminally fused GST-tag; GST (N); purchased Carna Bioscience, Inc; host or cells: baculovirus expression system
Nature of the experiment: In vitro enzyme assay (cell-free HTRF kinase assay), JAK1. The conditions noted are these: catalytic domain aa 850-1154, GST-tag; ATP 60 μM, SRCtide 400 nM, reaction 120 min. In short, it runs like this: (§1)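 Catalytic-domain human kinases (baculovirus-expressed; JAK1 GST-tagged aa 850-1154, JAK2/JAK3 His-tagged) reacted with biotin-SRCtide and ATP in HEPES pH 7.5, MgCl2, DTT buffer, 1% DMSO, at room temperature. EDTA stop (10 mM final), then ULight-streptavidin/Eu-anti-phosphotyrosine overnight at 4 °C; HTRF 665/615 ratio gave IC50.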

For the next experiment, the target named is T2, JAK2 (Homo sapiens, UniProt O60674).
T2 construct: All enzymes only contain the catalytic domain; His (N); purchased Carna Bioscience, Inc; host or cells: baculovirus expression system
As to the kind of experiment: In vitro enzyme assay (cell-free HTRF kinase assay), JAK2. As to conditions: catalytic domain, His-tag; ATP 10 μM, SRCtide 25 nM, reaction 30 min. In short, it runs like this: as §1

The target in the next experiment is T3, JAK3 (Homo sapiens, UniProt P52333).
T3 construct: All enzymes only contain the catalytic domain; His (N); purchased Carna Bioscience, Inc; host or cells: baculovirus expression system
Nature of the experiment: In vitro enzyme assay (cell-free HTRF kinase assay), JAK3. The conditions noted are these: catalytic domain, His-tag; ATP 3 μM, SRCtide 100 nM, reaction 30 min. In short, it runs like this: as §1

T1 sequence (P23458 850-1154): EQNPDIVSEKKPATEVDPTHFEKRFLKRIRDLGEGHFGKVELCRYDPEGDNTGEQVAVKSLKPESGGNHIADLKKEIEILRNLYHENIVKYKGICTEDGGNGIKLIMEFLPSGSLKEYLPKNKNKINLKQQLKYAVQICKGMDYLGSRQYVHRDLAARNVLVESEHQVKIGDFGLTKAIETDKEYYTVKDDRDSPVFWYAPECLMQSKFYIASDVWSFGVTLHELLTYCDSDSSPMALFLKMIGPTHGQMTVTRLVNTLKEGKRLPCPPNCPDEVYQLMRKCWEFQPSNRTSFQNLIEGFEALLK
T3 sequence (P52333 822-1111 limits assumed): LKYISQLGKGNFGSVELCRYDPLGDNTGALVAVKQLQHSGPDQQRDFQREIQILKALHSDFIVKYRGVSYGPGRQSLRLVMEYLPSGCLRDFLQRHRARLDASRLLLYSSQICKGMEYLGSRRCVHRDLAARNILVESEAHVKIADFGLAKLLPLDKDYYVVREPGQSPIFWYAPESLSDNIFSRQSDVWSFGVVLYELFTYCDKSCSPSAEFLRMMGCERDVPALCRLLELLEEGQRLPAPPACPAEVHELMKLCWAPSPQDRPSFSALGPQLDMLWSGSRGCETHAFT
T2 sequence (O60674 849-1124 limits assumed): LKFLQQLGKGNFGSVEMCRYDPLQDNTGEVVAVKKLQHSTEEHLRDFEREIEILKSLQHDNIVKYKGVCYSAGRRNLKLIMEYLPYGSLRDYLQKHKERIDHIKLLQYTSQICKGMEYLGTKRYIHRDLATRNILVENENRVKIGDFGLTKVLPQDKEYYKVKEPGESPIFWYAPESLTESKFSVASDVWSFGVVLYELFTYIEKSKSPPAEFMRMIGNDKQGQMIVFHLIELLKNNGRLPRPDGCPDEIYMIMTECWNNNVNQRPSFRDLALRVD

Consider `O=C(NCc1ccccn1)c1cc(Cl)c(C(=O)n2ccc3c(NC(=O)C4CC4)nccc32)c(Cl)c1` [Compound No. 147, 3,5-Dichloro-4-({4-[(cyclopropylcarbonyl)amino]-1H-pyrrolo[3,2-c]pyridin-1-yl}carbonyl)-N-(pyridin-2-ylmethyl)benzamide], for which the IC50 against JAK1, against JAK2 and against JAK3 was below 500 nM throughout.

As for `O=C(NCCN1CCCC1)c1cc(Cl)c(C(=O)n2ccc3c(NC(=O)C4CC4)nccc32)c(Cl)c1` [Compound No. 148, 3,5-Dichloro-4-({4-[(cyclopropylcarbonyl)amino]-1H-pyrrolo[3,2-c]pyridin-1-yl}carbonyl)-N-[2-(pyrrolidin-1-yl)ethyl]benzamide], the values for the IC50 at JAK1, at JAK2 and against JAK3 were below 500 nM, below 500 nM and below 100 nM, respectively.

Turning to `O=C(NCCCN1CCOCC1)c1cc(Cl)c(C(=O)n2ccc3c(NC(=O)C4CC4)nccc32)c(Cl)c1` [Compound No. 149, 3,5-Dichloro-4-({4-[(cyclopropylcarbonyl)amino]-1H-pyrrolo[3,2-c]pyridin-1-yl}carbonyl)-N-[3-(morpholin-4-yl)propyl]benzamide], the figures for the IC50 on JAK1, against JAK2 and against JAK3 were below 500 nM, below 1000 nM and below 500 nM, respectively.

As to `O=C(NCCN1CCCCC1)c1cc(Cl)c(C(=O)n2ccc3c(NC(=O)C4CC4)nccc32)c(Cl)c1` [Compound No. 150, 3,5-Dichloro-4-({4-[(cyclopropylcarbonyl)amino]-1H-pyrrolo[3,2-c]pyridin-1-yl}carbonyl)-N[2-(piperidin-1-yl)ethyl]benzamide], the IC50 on JAK1, on JAK2 and against JAK3 was below 500 nM throughout.

As to `CC(CO)NC(=O)c1cc(Cl)c(C(=O)n2ccc3c(NC(=O)C4CC4)nccc32)c(Cl)c1` (stereo not drawn) [Compound No. 151, 3,5-Dichloro-4-({4-[(cyclopropylcarbonyl)amino]-1H-pyrrolo[3,2-c]pyridin-1-yl}carbonyl)-N-(1-hydroxypropan-2-yl)benzamide], the figures for the IC50 against JAK1, on JAK2 and at JAK3 were below 1000 nM, below 500 nM and below 500 nM, respectively.

For `O=C(NCCF)c1cc(Cl)c(C(=O)n2ccc3c(NC(=O)C4CC4)nccc32)c(Cl)c1` [Compound No. 154, 3,5-Dichloro-4-({4-[(cyclopropylcarbonyl)amino]-1H-pyrrolo[3,2-c]pyridin-1-yl}carbonyl)-N-(2-fluoroethyl)benzamide], the IC50 against JAK1 is below 1000 nM; against JAK2, below 500 nM; on JAK3, below 500 nM.

Turning to `CNCc1cc(Cl)c(C(=O)n2ccc3c(NC(=O)C4CC4)nccc32)c(Cl)c1` [Compound No. 163, N-(1-{2,6-Dichloro-4-[(methylamino)methyl]benzoyl}-1H-pyrrolo[3,2-c]pyridin-4-yl)cyclopropanecarboxamide], the IC50 is below 500 nM against JAK1, below 500 nM at JAK2 and below 100 nM at JAK3.

Consider `CCNCc1cc(Cl)c(C(=O)n2ccc3c(NC(=O)C4CC4)nccc32)c(Cl)c1` [Compound No. 164, N-(1-{2,6-Dichloro-4-[(ethylamino)methyl]benzoyl}-1H-pyrrolo[3,2-c]pyridin-4-yl)cyclopropanecarboxamide], for which the IC50 against JAK1, at JAK2 and on JAK3 was below 500 nM in each case.

Turning to `O=C(Nc1nccc2c1ccn2C(=O)c1c(Cl)cc(CNCCN2CCNC2=O)cc1Cl)C1CC1` [Compound No. 165, N-{1-[2,6-Dichloro-4-({[2-(2-oxoimidazolidin-1-yl)ethyl]amino}methyl)benzoyl]-1H-pyrrolo[3,2-c]pyridin-4-yl}cyclopropanecarboxamide], the IC50 against JAK1 was below 1000 nM; against JAK2, below 500 nM; on JAK3, below 500 nM.
